Experimental data published in patent US9492494B2, “Oral composition” (Kyowa Hakko Bio Co., Ltd., priority 2007, dated 2016).

Tested on: soluble collagen and insoluble collagen of abdominal skin
Assay: Oral administration test in rats: L-hydroxyproline in soluble and insoluble collagen of abdominal skin (Experimental Example 2)
Type: in vivo, F344/DuCrlCrlj rats
Conditions: oral 10 mL/kg once a day for 12 days, abdominal skin on 13th day, soluble plus insoluble collagen, mean±standard deviation, 4 rats per group
Experimental: To the rats of the administration groups 7-11 were each administered with compositions 7-11 obtained by dissolving collagen peptide and L-hydroxyproline in purified water to the contents shown in Table 3 at 10 mL/kg. The rats of the control administration group 12 were administered with purified water at 10 mL/kg.
On the 13th day from the start of the administration test, the abdomen was shaved under anesthesia by intraperitoneal administration of pentobarbital, and the abdominal skin was collected. […] The values are shown by mean±standard deviation.

O=C(O)[C@@H]1C[C@@H](O)CN1 [composition 11, trans-4-hydroxy-L-proline]
L-hydroxyproline amount/wet weight of skin: 10.66 ± 1.69 mg/g
